{"source": "patent US20260285850A1", "about": "“SUBSTITUTED OXAZOLIDINONES AND IMIDAZOLINONES AS HERBICIDES” (FMC CORPORATION, priority 2023, published 2026)", "type_in_all_cases": "in vivo", "key": {"[1]": {"test_system": "barnyardgrass (Echinochloa crus-galli)", "test": "Test A preemergence soil spray, visual injury rating 0-100", "conditions": "10 days", "how_it_was_run": "(§1)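 Compounds formulated in a non-phytotoxic solvent with surfactant are sprayed onto soil of freshly planted loam-sand pots ahead of emergence, or onto emerged plants 2-10 cm tall. After a 10-day greenhouse period, each species is scored visually for injury against untreated controls.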"}, "[2]": {"test_system": "blackgrass (Alopecurus myosuroides)", "test": "Test A preemergence soil spray, visual injury rating 0-100", "conditions": "10 days", "how_it_was_run": "as §1"}, "corn (Zea mays) [3]": {"test_system": "corn (Zea mays)", "test": "Test A preemergence soil spray, visual injury rating 0-100", "conditions": "10 days", "how_it_was_run": "as §1"}, "[4]": {"test_system": "green foxtail (Setaria viridis)", "test": "Test A preemergence soil spray, visual injury rating 0-100", "conditions": "10 days", "how_it_was_run": "as §1"}, "kochia (Bassia scoparia) [5]": {"test_system": "kochia (Bassia scoparia)", "test": "Test A preemergence soil spray, visual injury rating 0-100", "conditions": "10 days", "how_it_was_run": "as §1"}, "[6]": {"test_system": "oat, wild (wild oat, Avena fatua)", "test": "Test A preemergence soil spray, visual injury rating 0-100", "conditions": "10 days", "how_it_was_run": "as §1"}, "[7]": {"test_system": "palmer (palmer amaranth, palmer pigweed, Amaranthus palmeri)", "test": "Test A preemergence soil spray, visual injury rating 0-100", "conditions": "10 days", "how_it_was_run": "as §1"}, "[8]": {"test_system": "ragweed (common ragweed, Ambrosia artemisiifolia)", "test": "Test A preemergence soil spray, visual injury rating 0-100", "conditions": "10 days", "how_it_was_run": "as §1"}, "[9]": {"test_system": "ryegrass, Italian (italian ryegrass, Lolium multiflorum)", "test": "Test A preemergence soil spray, visual injury rating 0-100", "conditions": "10 days", "how_it_was_run": "as §1"}, "soybean (Glycine max) [10]": {"test_system": "soybean (Glycine max)", "test": "Test A preemergence soil spray, visual injury rating 0-100", "conditions": "10 days", "how_it_was_run": "as §1"}, "[11]": {"test_system": "wheat (Triticum aestivum)", "test": "Test A preemergence soil spray, visual injury rating 0-100", "conditions": "10 days", "how_it_was_run": "as §1"}, "[12]": {"test_system": "barnyardgrass (Echinochloa crus-galli)", "test": "Test A postemergence application, visual injury rating 0-100", "how_it_was_run": "as §1"}, "[13]": {"test_system": "blackgrass (Alopecurus myosuroides)", "test": "Test A postemergence application, visual injury rating 0-100", "how_it_was_run": "as §1"}, "corn (Zea mays) [14]": {"test_system": "corn (Zea mays)", "test": "Test A postemergence application, visual injury rating 0-100", "how_it_was_run": "as §1"}, "[15]": {"test_system": "galium (catchweed bedstraw, Galium aparine)", "test": "Test A postemergence application, visual injury rating 0-100", "how_it_was_run": "as §1"}, "[16]": {"test_system": "green foxtail (Setaria viridis)", "test": "Test A postemergence application, visual injury rating 0-100", "how_it_was_run": "as §1"}, "[17]": {"test_system": "horseweed (Erigeron canadensis)", "test": "Test A postemergence application, visual injury rating 0-100", "how_it_was_run": "as §1"}, "kochia (Bassia scoparia) [18]": {"test_system": "kochia (Bassia scoparia)", "test": "Test A postemergence application, visual injury rating 0-100", "how_it_was_run": "as §1"}, "[19]": {"test_system": "oat, wild (wild oat, Avena fatua)", "test": "Test A postemergence application, visual injury rating 0-100", "how_it_was_run": "as §1"}, "[20]": {"test_system": "palmer (palmer amaranth, palmer pigweed, Amaranthus palmeri)", "test": "Test A postemergence application, visual injury rating 0-100", "how_it_was_run": "as §1"}, "[21]": {"test_system": "ragweed (common ragweed, Ambrosia artemisiifolia)", "test": "Test A postemergence application, visual injury rating 0-100", "how_it_was_run": "as §1"}, "[22]": {"test_system": "ryegrass, Italian (italian ryegrass, Lolium multiflorum)", "test": "Test A postemergence application, visual injury rating 0-100", "how_it_was_run": "as §1"}, "soybean (Glycine max) [23]": {"test_system": "soybean (Glycine max)", "test": "Test A postemergence application, visual injury rating 0-100", "how_it_was_run": "as §1"}, "[24]": {"test_system": "wheat (Triticum aestivum)", "test": "Test A postemergence application, visual injury rating 0-100", "how_it_was_run": "as §1"}, "[25]": {"test_system": "barnyardgrass (Echinochloa crusgalli)", "test": "Test B flooded paddy test, visual plant response rating 0-100", "conditions": "250 g ai/ha, Flood, applied to paddy water, evaluated after 13 days", "how_it_was_run": "(§2)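 Visual scores versus untreated controls were recorded 13 days after treatment of greenhouse-held plants. At the 2-leaf stage, pots were flooded 3 cm above the soil surface and compounds added straight to the water.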"}, "[26]": {"test_system": "ducksalad (Heteranthera limosa)", "test": "Test B flooded paddy test, visual plant response rating 0-100", "conditions": "250 g ai/ha, Flood, applied to paddy water, evaluated after 13 days", "how_it_was_run": "as §2"}, "rice (Oryza sativa)": {"test_system": "rice (Oryza sativa)", "test": "Test B flooded paddy test, visual plant response rating 0-100", "conditions": "250 g ai/ha, Flood, applied to paddy water, evaluated after 13 days", "how_it_was_run": "as §2"}, "[27]": {"test_system": "sedge, umbrella (small-flower umbrella sedge, Cyperus difformis)", "test": "Test B flooded paddy test, visual plant response rating 0-100", "conditions": "250 g ai/ha, Flood, applied to paddy water, evaluated after 13 days", "how_it_was_run": "as §2"}, "[28]": {"conditions": "62 g ai/ha, 0 = no effect, 100 = complete control"}, "[29]": {"conditions": "62 g ai/ha, postemergence, 10 days, 0 = no effect, 100 = complete control"}, "[30]": {"conditions": "Postemergence, 16 g ai/ha, greenhouse 10 days, 0 no effect, 100 complete control"}}}
{"molecule": "CCOC(=O)C1CC(NC(=O)C2(C)CN(c3cc(F)cc(F)c3)C(=O)O2)C1", "note": "(stereo not shown) [Compound 125]", "values": [{"measurement": "Barnyardgrass plant response rating", "setting": "[1]; 16 g ai/ha, 0 to 100 scale", "result": 0}, {"measurement": "Barnyardgrass plant response rating (0-100)", "setting": "[1]; [28]", "result": 50}, {"measurement": "Blackgrass plant response rating", "setting": "[2]; 16 g ai/ha, 0 to 100 scale", "result": 50}, {"measurement": "Blackgrass plant response rating (0-100)", "setting": "[2]; [28]", "result": 90}, {"measurement": "Corn plant response rating", "setting": "corn (Zea mays) [3]; 16 g ai/ha, 0 to 100 scale", "result": 0}, {"measurement": "Corn plant response rating (0-100)", "setting": "corn (Zea mays) [3]; [28]", "result": 90}, {"measurement": "Foxtail, Green plant response rating", "setting": "[4]; 16 g ai/ha, 0 to 100 scale", "result": 10}, {"measurement": "Foxtail, Green plant response rating (0-100)", "setting": "[4]; [28]", "result": 90}, {"measurement": "Kochia plant response rating", "setting": "kochia (Bassia scoparia) [5]; 16 g ai/ha, 0 to 100 scale", "result": 0}, {"measurement": "Kochia plant response rating (0-100)", "setting": "kochia (Bassia scoparia) [5]; [28]", "result": 90}, {"measurement": "Oat, Wild plant response rating", "setting": "[6]; 16 g ai/ha, 0 to 100 scale", "result": 90}, {"measurement": "Oat, Wild plant response rating (0-100)", "setting": "[6]; [28]", "result": 90}, {"measurement": "Pigweed, Palmer plant response rating", "setting": "[7]; 16 g ai/ha, 0 to 100 scale", "result": 20}, {"measurement": "Pigweed, Palmer plant response rating (0-100)", "setting": "[7]; [28]", "result": 50}, {"measurement": "Ragweed plant response rating", "setting": "[8]; 16 g ai/ha, 0 to 100 scale", "result": 0}, {"measurement": "Ragweed plant response rating (0-100)", "setting": "[8]; [28]", "result": 20}, {"measurement": "Ryegrass, Italian plant response rating", "setting": "[9]; 16 g ai/ha, 0 to 100 scale", "result": 0}, {"measurement": "Ryegrass, Italian plant response rating (0-100)", "setting": "[9]; [28]", "result": 90}, {"measurement": "Soybean plant response rating", "setting": "soybean (Glycine max) [10]; 16 g ai/ha, 0 to 100 scale", "result": 10}, {"measurement": "Soybean plant response rating (0-100)", "setting": "soybean (Glycine max) [10]; [28]", "result": 0}, {"measurement": "Wheat plant response rating", "setting": "[11]; 16 g ai/ha, 0 to 100 scale", "result": 30}, {"measurement": "Wheat plant response rating (0-100)", "setting": "[11]; [28]", "result": 60}, {"measurement": "Barnyardgrass plant response rating (0-100)", "setting": "[12]; [29]", "result": 100}, {"measurement": "Barnyardgrass plant response rating (0 to 100 scale)", "setting": "[12]; [30]", "result": 60}, {"measurement": "Blackgrass plant response rating (0-100)", "setting": "[13]; [29]", "result": 90}, {"measurement": "Blackgrass plant response rating (0 to 100 scale)", "setting": "[13]; [30]", "result": 90}, {"measurement": "Corn plant response rating (0-100)", "setting": "corn (Zea mays) [14]; [29]", "result": 100}, {"measurement": "Corn plant response rating (0 to 100 scale)", "setting": "corn (Zea mays) [14]; [30]", "result": 90}, {"measurement": "Galium plant response rating (0-100)", "setting": "[15]; [29]", "result": 60}, {"measurement": "Galium plant response rating (0 to 100 scale)", "setting": "[15]; [30]", "result": 30}, {"measurement": "Foxtail, Green plant response rating (0-100)", "setting": "[16]; [29]", "result": 90}, {"measurement": "Foxtail, Green plant response rating (0 to 100 scale)", "setting": "[16]; [30]", "result": 80}, {"measurement": "Horseweed plant response rating (0-100)", "setting": "[17]; [29]", "result": 20}, {"measurement": "Horseweed plant response rating (0 to 100 scale)", "setting": "[17]; [30]", "result": 0}, {"measurement": "Kochia plant response rating (0-100)", "setting": "kochia (Bassia scoparia) [18]; [29]", "result": 80}, {"measurement": "Kochia plant response rating (0 to 100 scale)", "setting": "kochia (Bassia scoparia) [18]; [30]", "result": 30}, {"measurement": "Oat, Wild plant response rating (0-100)", "setting": "[19]; [29]", "result": 90}, {"measurement": "Oat, Wild plant response rating (0 to 100 scale)", "setting": "[19]; [30]", "result": 50}, {"measurement": "Pigweed, Palmer plant response rating (0-100)", "setting": "[20]; [29]", "result": 70}, {"measurement": "Pigweed, Palmer plant response rating (0 to 100 scale)", "setting": "[20]; [30]", "result": 10}, {"measurement": "Ragweed plant response rating (0-100)", "setting": "[21]; [29]", "result": 50}, {"measurement": "Ragweed plant response rating (0 to 100 scale)", "setting": "[21]; [30]", "result": 20}, {"measurement": "Ryegrass, Italian plant response rating (0-100)", "setting": "[22]; [29]", "result": 70}, {"measurement": "Ryegrass, Italian plant response rating (0 to 100 scale)", "setting": "[22]; [30]", "result": 20}, {"measurement": "Soybean plant response rating (0-100)", "setting": "soybean (Glycine max) [23]; [29]", "result": 70}, {"measurement": "Soybean plant response rating (0 to 100 scale)", "setting": "soybean (Glycine max) [23]; [30]", "result": 50}, {"measurement": "Wheat plant response rating (0-100)", "setting": "[24]; [29]", "result": 90}, {"measurement": "Wheat plant response rating (0 to 100 scale)", "setting": "[24]; [30]", "result": 80}, {"measurement": "Plant response rating, Barnyardgrass (0 to 100 scale, 0 is no effect and 100 is complete control)", "setting": "[25]", "result": 0}, {"measurement": "Plant response rating, Ducksalad (0 to 100 scale, 0 is no effect and 100 is complete control)", "setting": "[26]", "result": 0}, {"measurement": "Plant response rating, Rice (0 to 100 scale, 0 is no effect and 100 is complete control)", "setting": "rice (Oryza sativa)", "result": 0}, {"measurement": "Plant response rating, Sedge, Umbrella (0 to 100 scale, 0 is no effect and 100 is complete control)", "setting": "[27]", "result": 0}]}
